ChEMBL document CHEMBL2073904, “Effect of levothyroxine administration on intestinal P-glycoprotein expression: consequences for drug disposition” (Clin Pharmacol Ther, 2002)

What was measured:
[1] = target: T1, ATP-dependent translocase ABCB1 (Homo sapiens, UniProt P08183); test: TP_TRANSPORTER: RT-PCR in vivo, duodenal; assay type: functional, organism-based, Duodenum
[2] = target: T1, ATP-dependent translocase ABCB1; test: TP_TRANSPORTER: immunohistochemistry in vivo, duodenum; assay type: functional, organism-based

T1 sequence (P08183 whole entry): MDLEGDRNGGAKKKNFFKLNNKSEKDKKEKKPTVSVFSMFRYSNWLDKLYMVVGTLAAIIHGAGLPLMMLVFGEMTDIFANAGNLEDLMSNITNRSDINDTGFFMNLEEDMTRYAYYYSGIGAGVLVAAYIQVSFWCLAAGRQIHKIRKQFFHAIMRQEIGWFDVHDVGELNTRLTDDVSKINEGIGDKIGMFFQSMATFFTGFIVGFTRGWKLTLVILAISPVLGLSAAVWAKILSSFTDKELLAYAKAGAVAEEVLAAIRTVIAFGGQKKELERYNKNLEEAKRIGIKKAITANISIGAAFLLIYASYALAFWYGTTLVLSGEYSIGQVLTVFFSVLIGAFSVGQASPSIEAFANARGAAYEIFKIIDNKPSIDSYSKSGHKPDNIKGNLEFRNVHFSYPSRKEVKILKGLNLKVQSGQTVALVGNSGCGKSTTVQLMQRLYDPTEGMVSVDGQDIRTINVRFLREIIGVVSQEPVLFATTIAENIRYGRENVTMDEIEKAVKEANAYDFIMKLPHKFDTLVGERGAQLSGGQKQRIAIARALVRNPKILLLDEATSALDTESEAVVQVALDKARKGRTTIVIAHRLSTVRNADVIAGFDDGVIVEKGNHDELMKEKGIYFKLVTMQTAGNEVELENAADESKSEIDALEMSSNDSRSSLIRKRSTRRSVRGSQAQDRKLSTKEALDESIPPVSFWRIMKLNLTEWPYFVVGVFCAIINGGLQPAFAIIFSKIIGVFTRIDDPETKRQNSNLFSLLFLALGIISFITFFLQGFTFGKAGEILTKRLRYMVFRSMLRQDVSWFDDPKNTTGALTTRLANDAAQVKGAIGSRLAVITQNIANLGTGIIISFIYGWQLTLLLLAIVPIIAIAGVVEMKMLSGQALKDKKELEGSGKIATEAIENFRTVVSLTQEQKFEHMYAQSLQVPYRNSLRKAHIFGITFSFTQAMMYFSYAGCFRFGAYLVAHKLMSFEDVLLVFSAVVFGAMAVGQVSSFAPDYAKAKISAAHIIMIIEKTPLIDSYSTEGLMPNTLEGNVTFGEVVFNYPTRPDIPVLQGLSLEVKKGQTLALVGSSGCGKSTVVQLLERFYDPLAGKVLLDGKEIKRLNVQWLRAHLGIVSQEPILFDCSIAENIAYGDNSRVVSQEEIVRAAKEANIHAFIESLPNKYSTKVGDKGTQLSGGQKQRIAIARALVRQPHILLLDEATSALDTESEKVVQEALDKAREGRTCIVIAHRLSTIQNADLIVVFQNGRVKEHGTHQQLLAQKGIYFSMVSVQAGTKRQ

Activity [1]: inducer [+] | Activity [2]: inducer [+]
SMILES: N[C@@H](Cc1cc(I)c(Oc2cc(I)c(O)c(I)c2)c(I)c1)C(=O)O [LEVOTHYROXINE]
